Experimental data as given in patent US4005214A (Hoffmann-La Roche Inc., priority 1974, dated 1977).
Where a name gives a salt, the structure may show the parent alone.

Key:
[1] = pH of about 9; cited from earlier work
[2] = acute toxicity in mice (LD 50); type: in vivo; settings: mouse, in vivo, iv, intravenous administration, read-out: LD 50 (Lethal Dose) i.v.
[3] = test system: mice; assay: acute toxicity in mice (LD 50); type: in vivo; settings: for LD 50 (Lethal Dose) s.c.: subcutaneous administration
[4] = test system: Escherichia coli; assay: activity (CD 50) against Escherichia coli upon subcutaneous administration to mice; type: in vivo

SMILES | stability at high pH [1] | LD50 [2] [mg/kg] | LD 50 (Lethal Dose) s.c. [3] [mg/kg] | ED50 ([4]; sc, read-out: CD 50 (Curative Dose)) [mg/kg] | LD 50 (Lethal Dose) i.v. ([3]; intravenous administration) [mg/kg] | CD 50 (Curative Dose) [4] [mg/kg]
CC1(C)S[C@@H]2[C@H](NC(=O)[C@H](N)c3ccc(O)cc3)C(=O)N2[C@H]1C(=O)O [Amoxicillin, D-(-)-alpha-amino-parahydroxybenzyl penicillin] | very unstable | – | – | – | – | –
CC1(C)S[C@@H]2[C@H](NC(=O)[C@H](N)c3ccc(O)cc3)C(=O)N2[C@H]1C(=O)O [X, choline salt of amoxicillin] | – | 250 to 500 | 2000 to 4000 | 5.9 | – | –
CC1(C)S[C@@H]2[C@H](NC(=O)[C@H](N)c3ccc(O)cc3)C(=O)N2[C@H]1C(=O)O [Y, N-methyl-D-glucamine salt of amoxicillin] | – | – | > 5000 | – | 500 to 1000 | 5.0
